{"source": "patent US4496591A", "about": "“Insecticidal bis-carbamate sulfides” (priority 1981, dated 1985)", "key": {"[1]": {"tested_on": "bean aphid (Aphis fabae Scop.)", "assay": "Bean aphid foliage spray test", "format": "in vivo", "design": "key: A: excellent control; B: partial control; C: no control at 500 ppm", "settings": "500 parts per million, 24 hour", "protocol": "(§1) Suspensions of the test compounds were prepared by dissolving one gram of compound in 50 milliliters of acetone in which had been dissolved 0.1 gram (10 percent of the weight of compound) of an alkylphenoxy polyethoxyethanol surfactant, as an emulsifying or dispersing agent. The resulting solution was mixed into 150 milliliters of water to give roughly 200 milliliters of a suspension containing the compound in finely divided form. The thus-prepared stock suspension contained 0.5 percent by weight of compound. The concentrations in parts per million by weight employed in the tests described hereinbelow were obtained by appropriate dilutions of the stock suspension with water. The test procedures were as follows:\nAdults and nymphal stages of the bean aphid (Aphis fabae Scop.) reared on potted dwarf nasturtium plants at 68°-70° F. and 50±5 percent relative humidity, constituted the test insects. For testing purposes, the number of aphids per pot were standardized to 100-150 by trimming plants containing excess aphids.\nThe test compounds were formulated by diluting the stock suspension with water to give a suspension containing 500 parts of test compound per million parts of final formulation.\nThe potted plants (one pot per compound tested) infested with 100-150 aphids, were placed on a revolving turntable and sprayed with 100-110 milliliters of test compound formulation by use of a DeVilbiss spray gun set at 40 psig. air pressure. This application, which lasted 25 seconds, was sufficient to wet the plants to run-off. As a control, 100-110 milliliters of a water-acetone-emulsifier solution containing no test compound was also sprayed on infested plants. After spraying, the pots were placed on their sides on a sheet of white standard mimeograph paper which had been previously ruled to facilitate counting. Temperature and humidity in the test room during the 24 hour holding period were 68°-70° F. and 50±5 percent, respectively. Aphids which fell onto the paper and were unable to remain standing after being uprighted were considered dead. Aphids remaining on the plants were observed closely for movement and those which were unable to move the length of the body upon stimulation by prodding were considered dead.\n(§2) In these tests the pesticidal activity of the compounds at the indicated dosage rate against aphid, Southern Armyworm, Bean Beetle and housefly was rated as follows: […]"}, "[2]": {"tested_on": "Mexican bean beetle (Epilachna varivestis, Muls.) larvae", "assay": "Mexican bean beetle leaf spray test", "format": "in vivo", "design": "key: A: excellent control; B: partial control; C: no control at 500 ppm", "settings": "500 parts per million, fourth instar larvae, three days", "protocol": "as §1\nFourth instar larvae of the Mexican bean beetle (Epilachna varivestis, Muls.), reared on Tendergreen bean plants at a temperature of 80±5° F. and 50±5° F. percent relative humdity, were the test insects.\nThe test compounds were formulated by diluting the stock suspension with water to give a suspension containing 500 parts of test compound per million parts of final formulation. Tendergreen bean plants of standard height and age were placed on a revolving turntable and sprayed with 100-110 milliliters of test compound formulation by use of a DeVilbiss spray gun set at 40 psig air pressure. This application, which lasted 25 seconds, was sufficient to wet the plants to run-off. As a control, 100-110 milliliters of a water-acetone-emulsifier solution containing no test compound was also sprayed on infested plants. When dry, the paired leaves were separated and each was placed in a 9 centimeter Petri dish lined with moistened filter paper. Five randomly selected larvae were introduced into each dish, and the dishes were closed. The closed dishes were labeled and held at a temperature of 80±5° F., for three days. Although the larvae could easily consume the leaf within 24 to 48 hours, no more food was added. Larvae which were unable to move the length of the body, even upon stimulation, were considered dead.\nas §2"}}, "data": [{"smiles": "CSC(C)=NOC(=O)N(C)SN(C)C(=O)Oc1cccc(C=O)c1", "note": "[Compound 3]", "values": [{"measurement": "Aphids, pesticidal activity rating", "setting": "[1]", "value": "A"}, {"measurement": "Mexican Bean Beetle, pesticidal activity rating", "setting": "[2]", "value": "A"}]}]}
